Data taken from the NIST ThermoML archive (doi:10.1016/j.fluid.2013.08.029).

Assay: xn = mol fraction of the nth substance listed
Settings: 101 kPa, Liquid; for speed of sound: Sing-around technique in a fixed-path interferometer; for mass density: Vibrating tube method

CCCCCn1cc[n+](C)c1.F[B-](F)(F)F [1-methyl-3-pentyl-imidazolium tetrafluoroborate] + OCCO
Settings	mass density [kg/m3]	speed of sound [m/s]
288.15 K, x1 = 0.0549	1127.51	1659
288.15 K, x1 = 0.1148	1135.95	1639.3
288.15 K, x1 = 0.2053	1145.61	1617.1
288.15 K, x1 = 0.3086	1153.94	1599.3
288.15 K, x1 = 0.4154	1160.64	1587.3
288.15 K, x1 = 0.5063	1165.13	1580.3
288.15 K, x1 = 0.6273	1170.27	1573.1
288.15 K, x1 = 0.7138	1173.4	1569.8
288.15 K, x1 = 0.7982	1176.33	1567.9
288.15 K, x1 = 0.8985	1179.69	1565.9
293.15 K, x1 = 0.0549	1123.89	1646.9
293.15 K, x1 = 0.1148	1132.23	1627.2
293.15 K, x1 = 0.2053	1141.81	1604.6
293.15 K, x1 = 0.3086	1150.12	1586.9
293.15 K, x1 = 0.4154	1156.84	1575
293.15 K, x1 = 0.5063	1161.54	1567.7
293.15 K, x1 = 0.6273	1166.54	1560.8
293.15 K, x1 = 0.7138	1169.75	1558.1
293.15 K, x1 = 0.7982	1172.71	1556.8
293.15 K, x1 = 0.8985	1176.11	1555.3
298.15 K, x1 = 0.0549	1120.27	1634.8
298.15 K, x1 = 0.1148	1128.52	1615.1
298.15 K, x1 = 0.2053	1138.01	1592.4
298.15 K, x1 = 0.3086	1146.31	1574.7
298.15 K, x1 = 0.4154	1153.05	1562.7
298.15 K, x1 = 0.5063	1157.88	1555.5
298.15 K, x1 = 0.6273	1162.86	1548.3
298.15 K, x1 = 0.7138	1166.1	1544.8
298.15 K, x1 = 0.7982	1169.1	1542.3
298.15 K, x1 = 0.8985	1172.64	1540.3
303.15 K, x1 = 0.0549	1116.63	1622.8
303.15 K, x1 = 0.1148	1124.81	1602.9
303.15 K, x1 = 0.2053	1134.22	1580.2
303.15 K, x1 = 0.3086	1142.5	1562.5
303.15 K, x1 = 0.4154	1149.27	1550.6
303.15 K, x1 = 0.5063	1154.21	1543.2
303.15 K, x1 = 0.6273	1159.19	1536.5
303.15 K, x1 = 0.7138	1162.48	1532.8
303.15 K, x1 = 0.7982	1165.5	1530.3
303.15 K, x1 = 0.8985	1169.12	1528.5
308.15 K, x1 = 0.0549	1113	1609.9
308.15 K, x1 = 0.1148	1121.09	1590.9
308.15 K, x1 = 0.2053	1130.44	1568.1
308.15 K, x1 = 0.3086	1138.71	1550.4
308.15 K, x1 = 0.4154	1145.51	1538.5
308.15 K, x1 = 0.5063	1150.46	1531.2
308.15 K, x1 = 0.6273	1155.52	1524.5
308.15 K, x1 = 0.7138	1158.87	1521
308.15 K, x1 = 0.7982	1161.91	1518.5
308.15 K, x1 = 0.8985	1165.59	1516.9
313.15 K, x1 = 0.0549	1109.35	1598.2
313.15 K, x1 = 0.1148	1117.37	1578.9
313.15 K, x1 = 0.2053	1126.66	1556.1
313.15 K, x1 = 0.3086	1134.93	1538.4
313.15 K, x1 = 0.4154	1141.76	1526.5
313.15 K, x1 = 0.5063	1146.71	1519.5
313.15 K, x1 = 0.6273	1151.88	1512.8
313.15 K, x1 = 0.7138	1155.26	1509.2
313.15 K, x1 = 0.7982	1158.35	1506.4
313.15 K, x1 = 0.8985	1162.04	1505.3
318.15 K, x1 = 0.0549	1105.67	1586.7
318.15 K, x1 = 0.1148	1113.63	1566.9
318.15 K, x1 = 0.2053	1122.88	1544.2
318.15 K, x1 = 0.3086	1131.15	1526.6
318.15 K, x1 = 0.4154	1138.02	1514.6
318.15 K, x1 = 0.5063	1142.8	1507.7
318.15 K, x1 = 0.6273	1148.22	1501.5
318.15 K, x1 = 0.7138	1151.65	1497.7
318.15 K, x1 = 0.7982	1154.78	1495.5
318.15 K, x1 = 0.8985	1158.38	1494
